# Reference: US12351580B2, “NLRP3 modulators” (Innate Tumor Immunity, Inc., priority 2017, dated 2025)
# Biological target: T1, TLR8 (Homo sapiens, UniProt Q9NR97)
# T1 construct: host or cells: HEK-Blue cells (human HEK) co-expressing TLR8 and an NF-kB/AP1-inducible SEAP reporter
# T1 sequence (Q9NR97 27-1041): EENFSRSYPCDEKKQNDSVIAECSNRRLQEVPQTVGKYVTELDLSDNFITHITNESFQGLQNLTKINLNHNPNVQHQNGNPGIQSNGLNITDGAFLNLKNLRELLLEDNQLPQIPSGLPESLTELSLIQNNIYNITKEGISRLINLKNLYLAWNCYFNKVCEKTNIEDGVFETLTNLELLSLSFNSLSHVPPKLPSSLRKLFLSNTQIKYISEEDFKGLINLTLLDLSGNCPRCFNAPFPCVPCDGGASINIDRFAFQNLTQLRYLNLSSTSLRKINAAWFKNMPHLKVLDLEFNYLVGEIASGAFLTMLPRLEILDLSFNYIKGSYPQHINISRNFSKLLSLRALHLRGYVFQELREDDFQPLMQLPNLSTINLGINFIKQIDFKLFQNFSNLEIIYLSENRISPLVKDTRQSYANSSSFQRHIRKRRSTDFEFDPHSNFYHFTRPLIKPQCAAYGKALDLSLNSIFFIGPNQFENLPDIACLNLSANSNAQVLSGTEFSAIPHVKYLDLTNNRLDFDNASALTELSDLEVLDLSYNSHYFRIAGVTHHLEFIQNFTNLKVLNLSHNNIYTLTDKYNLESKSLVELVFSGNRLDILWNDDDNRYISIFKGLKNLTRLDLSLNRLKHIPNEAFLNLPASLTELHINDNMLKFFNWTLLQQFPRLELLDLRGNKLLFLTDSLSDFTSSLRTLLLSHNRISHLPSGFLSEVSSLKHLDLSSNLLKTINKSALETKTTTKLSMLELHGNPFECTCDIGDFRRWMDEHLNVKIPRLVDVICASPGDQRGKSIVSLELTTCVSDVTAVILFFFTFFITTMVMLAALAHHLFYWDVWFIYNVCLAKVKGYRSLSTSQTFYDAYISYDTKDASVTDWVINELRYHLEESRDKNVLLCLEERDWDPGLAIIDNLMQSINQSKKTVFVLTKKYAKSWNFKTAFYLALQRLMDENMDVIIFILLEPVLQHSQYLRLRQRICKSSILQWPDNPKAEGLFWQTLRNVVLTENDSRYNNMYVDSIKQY
# Assay: In vitro human TLR8 binding reporter assay (HEK-Blue, NF-kB/AP1-inducible SEAP)
# Type: cell-based
# Settings: activity range symbols
# Description: In Vitro Human TLR7 and TLR8 Binding Reporter Assays
# Logarithmically-growing human HEK-Blue cells co-expressing a TLR7 or TLR8 gene and a NF-kB/AP1-inducible SEAP (secreted embryonic alkaline phosphatase; Invivogen, San Diego, CA) reporter gene are added to individual wells of a 384-well plate (15,000 cells per 20 μL per well) and maintained for 24 h at 37° C., 5% CO2. Test compounds or DMSO are distributed to separate wells the next day using acoustic liquid handling technology (100 nL per well) and cells are subsequently incubated for 18 h at 37° C., 5% CO2. Cellular SEAP production is measured using an Envision plate reader instrument thirty minutes after adding freshly-made Quanti-Blue reagent (prepared by following manufacturer instructions; Invivogen, San Diego, CA) to the HEK-Blue TLR Nf-kB-SEAP cell reactions. All EC50 values (half-maximal effective concentration) are determined using proprietary data analysis software.
row,Compound,EC50
1,CCN(Cc1nc2c(N)nc3cc(Cl)ccc3c2n1CCCC(=O)N1CCOCC1)C(C)=O [Compound 220],> 100 µM
2,CCN(Cc1nc2c(N)nc3cc(Cl)ccc3c2n1CCCC(=O)N1CCN(C)CC1)C(C)=O [Compound 221],> 100 µM
3,CCN(Cc1nc2c(N)nc3cc(Cl)ccc3c2n1CCCC(=O)N1CCCC1)C(C)=O [Compound 222],> 100 µM
4,CCN(Cc1nc2c(N)nc3ccccc3c2n1CCC(=O)N1CCS(=O)(=O)CC1)C(=O)OC(C)(C)C [Compound 223],> 100 µM
5,CCNCc1nc2c(N)nc3cc(Br)ccc3c2[nH]1 [Compound 225],1 to 20 µM
6,CCN(Cc1nc2c(N)nc3cc(C(F)(F)F)ccc3c2n1CCCC(=O)NC)C(=O)OC(C)(C)C [Compound 226],> 100 µM
7,CCNCc1nc2c(N)nc3cc(C(F)(F)F)ccc3c2n1CCCC(=O)OC [Compound 227],> 100 µM
8,CCN(Cc1nc2c(N)nc3cc(C(F)(F)F)ccc3c2n1CCCC(=O)N1CCOCC1)C(=O)OC(C)(C)C [Compound 228],> 100 µM
9,CCN(Cc1nc2c(N)nc3cc(C(F)(F)F)ccc3c2n1CCCC(=O)OC)C(C)=O [Compound 229],> 100 µM
10,COc1ccc(-c2ccc3c(c2)nc(N)c2nc(CN4CCCC4=O)[nH]c23)cc1 [Compound 230],> 100 µM
11,CC(=O)NCc1nc2c(N)nc3ccccc3c2[nH]1 [Compound 233],> 100 µM
12,Nc1nc2ccccc2c2[nH]c(CN3CCCC3=O)nc12 [Compound 278],> 100 µM
13,"Nc1nc2cc(-c3cccnc3)ccc2c2[nH]c(CN3CCCC3=O)nc12 [Compound 279, 1-[(4-amino-7-pyridin-3-yl-1H-imidazo[4,5-c]quinolin-2-yl)methyl]pyrrolidin-2-one]",> 100 µM
14,"Nc1nc2cc(-c3ccccc3)ccc2c2[nH]c(CN3CCCC3=O)nc12 [Compound 280, 1-[(4-amino-7-phenyl-1H-imidazo[4,5-c]quinolin-2-yl)methyl]pyrrolidin-2-one]",> 100 µM
15,"Nc1nc2cc(-c3ccccc3Cl)ccc2c2[nH]c(CN3CCCC3=O)nc12 [Compound 281, 1-[[4-amino-7-(2-chlorophenyl)-1H-imidazo[4,5-c]quinolin-2-yl]methyl]pyrrolidin-2-one]",> 100 µM
16,"Cc1ccccc1-c1ccc2c(c1)nc(N)c1nc(CN3CCCC3=O)[nH]c12 [Compound 282, 1-[[4-amino-7-(2-methylphenyl)-1H-imidazo[4,5-c]quinolin-2-yl]methyl]pyrrolidin-2-one]",> 100 µM

row,Compound,EC50
1,"COc1ccccc1-c1ccc2c(c1)nc(N)c1nc(CN3CCCC3=O)[nH]c12 [Compound 283, 1-[[4-amino-7-(2-methoxyphenyl)-1H-imidazo[4,5-c]quinolin-2-yl]methyl]pyrrolidin-2-one]",> 100 µM
2,"Nc1nc2cc(-c3ccccc3F)ccc2c2[nH]c(CN3CCCC3=O)nc12 [Compound 284, 1-[[4-amino-7-(2-fluorophenyl)-1H-imidazo[4,5-c]quinolin-2-yl]methyl]pyrrolidin-2-one]",> 100 µM
3,"Nc1nc2cc(-c3cccc(Cl)c3)ccc2c2[nH]c(CN3CCCC3=O)nc12 [Compound 285, 1-[[4-amino-7-(3-chlorophenyl)-1H-imidazo[4,5-c]quinolin-2-yl]methyl]pyrrolidin-2-one]",> 100 µM
4,"Cc1cccc(-c2ccc3c(c2)nc(N)c2nc(CN4CCCC4=O)[nH]c23)c1 [Compound 286, 1-[[4-amino-7-(3-methylphenyl)-1H-imidazo[4,5-c]quinolin-2-yl]methyl]pyrrolidin-2-one]",> 100 µM
5,"COc1cccc(-c2ccc3c(c2)nc(N)c2nc(CN4CCCC4=O)[nH]c23)c1 [Compound 287, 1-[[4-amino-7-(3-methoxyphenyl)-1H-imidazo[4,5-c]quinolin-2-yl]methyl]pyrrolidin-2-one]",> 100 µM
6,"N#Cc1cccc(-c2ccc3c(c2)nc(N)c2nc(CN4CCCC4=O)[nH]c23)c1 [Compound 288, 3-[4-amino-2-[(2-oxopyrrolidin-l-yl)methyl]-1H-imidazo[4,5-c]quinolin-7-yl]benzonitrile]",> 100 µM
7,"Nc1nc2cc(-c3cccc(F)c3)ccc2c2[nH]c(CN3CCCC3=O)nc12 [Compound 289, 1-[[4-amino-7-(3-fluorophenyl)-1H-imidazo[4,5-c]quinolin-2-yl]methyl]pyrrolidin-2-one]",> 100 µM
8,"Cc1ccc(-c2ccc3c(c2)nc(N)c2nc(CN4CCCC4=O)[nH]c23)cc1 [Compound 291, 1-[[4-amino-7-(4-methylphenyl)-1H-imidazo[4,5-c]quinolin-2-yl]methyl]pyrrolidin-2-one]",> 100 µM
9,"Nc1nc2cc(Br)ccc2c2[nH]c(CN3CCCC3=O)nc12 [Compound 294, 1-[(4-amino-7-bromo-1H-imidazo[4,5-c]quinolin-2-yl)methyl]pyrrolidin-2-one]",> 100 µM
10,"Nc1nc2cc(-n3cccn3)ccc2c2[nH]c(CN3CCCC3=O)nc12 [Compound 295, 1-[(4-amino-7-pyrazol-1-yl-1H-imidazo[4,5-c]quinolin-2-yl)methyl]pyrrolidin-2-one]",> 100 µM
11,"Cc1cnn(-c2ccc3c(c2)nc(N)c2nc(CN4CCCC4=O)[nH]c23)c1 [Compound 296, 1-[[4-amino-7-(4-methylpyrazol-1-yl)-1H-imidazo[4,5-c]quinolin-2-yl]methyl]pyrrolidin-2-one]",> 100 µM
12,"Nc1nc2cc(C3CCOCC3)ccc2c2[nH]c(CN3CCCC3=O)nc12 [Compound 298, 1-[[4-amino-7-(oxan-4-yl)-1H-imidazo[4,5-c]quinolin-2-yl]methyl]pyrrolidin-2-one]",> 100 µM
13,"Cc1ccn(-c2ccc3c(c2)nc(N)c2nc(CN4CCCC4=O)[nH]c23)n1 [Compound 301, 1-[[4-amino-7-(3-methylpyrazol-1-yl)-1H-imidazo[4,5-c]quinolin-2-yl]methyl]pyrrolidin-2-one]",> 100 µM
14,"Nc1nc2cc(C3CCCCC3)ccc2c2[nH]c(CN3CCCC3=O)nc12 [Compound 302, 1-[(4-amino-7-cyclohexyl-1H-imidazo[4,5-c]quinolin-2-yl)methyl]pyrrolidin-2-one]",> 100 µM
15,"CC(c1nc2c(N)nc3cc(Br)ccc3c2[nH]1)N1CCCC1=O (stereo not shown) [Compound 303, 1-[1-(4-amino-7-bromo-1H-imidazo[4,5-c]quinolin-2-yl)ethyl]pyrrolidin-2-one]",20 to 100 µM
